Data published in a compilation of properties of binary mixtures (doi:10.1021/je060126x).

Experiment: xn = mol fraction of the nth substance listed
Settings: 298.15 K, 101 kPa

CCOS(=O)(=O)[O-].CC[n+]1ccn(C)c1 + CCO
Settings | speed of sound [m/s] | viscosity [mPa·s]
x2 = 0.1271 | 1657 | 65.5
x2 = 0.1281 | 1655 | 66.1
x2 = 0.2039 | 1636 | 49.8
x2 = 0.3088 | 1603 | 34.69
x2 = 0.3256 | 1598 | 32.21
x2 = 0.3598 | 1586 | 28.75
x2 = 0.4147 | 1566 | 22.88
x2 = 0.4336 | 1558 | 21.39
x2 = 0.4604 | 1545 | 18.98
x2 = 0.5103 | 1525 | 15.4
x2 = 0.5223 | 1516 | 14.78
x2 = 0.5724 | 1490 | 11.74
x2 = 0.5926 | 1480 | 10.83
x2 = 0.5951 | 1467 | 10.65
x2 = 0.712 | 1407 | 6.13
x2 = 0.7174 | 1406 | 5.98
x2 = 0.7676 | 1369 | 4.68
x2 = 0.806 | 1339 | 3.86
x2 = 0.8666 | 1286 | 2.709
x2 = 0.9026 | 1253 | 2.189
x2 = 0.9062 | 1248 | 2.138
x2 = 0.9504 | 1202 | 1.628
x2 = 0.9522 | 1200 | 1.589
